Results from patent US20230040021A1 (priority 2019, published 2023).

Columns and labels:
[1] = tested on: herpes gE antigen-specific IFN-γ; conditions: CpG T1 10 + saponin 5 + gE 5 μg/mouse; FIG. 15
Experimental: Experimental steps: on Day 7 after the immunization of mice, the spleen lymphocytes were prepared according to a conventional method, and the details were as follows: the spleens were taken aseptically by being cut with sterile forceps and scissors, and placed in a 70 μm cell strainer, which was placed in a plate containing 2 ml of pre-chilled 2% FBS (purchased from GIBCO)-PBS; the spleens were ground using a grinding rod, and the spleen cells entered the plate through the meshes to obtain a cell suspension, and then the suspension was filtered by a 40 μm cell strainer (purchased from BD) and put into a 50 ml sterile centrifuge tube by using a Pasteur pipet; it was centrifuged at 500×g at 4° C. for 5 min; the supernatant was discarded, and then 2 ml of 1×erythrocyte disruption agent (purchased from BD) was added to re-suspend the cells, and the resultant was allowed to stand for 5 min at 4° C., protected from light to disrupt the red blood cells; 10 ml of 2% FBS-PBS was added to terminate the erythrocyte disruption reaction; the resultant was centrifuged at 500×g at 4° C. for 5 min, the supernatant was discarded, and then 5 ml of 2% FBS-PBS was added to re-suspend the cells for later use.
C57BL/6(N) mice, female, 5 weeks old, 48 mice, purchased from Shanghai SLRC Laboratory Animal Co. Ltd.
2) QS-21 (CAS: NO. […]

[2] = tested on: HBsAg antigen-specific IFN-γ; design: species or system C57BL/6(N) mice; conditions: mouse, in vivo
[3] = tested on: HBcAg antigen-specific IFN-γ; design: species or system C57BL/6(N) mice; conditions: mouse, in vivo

Substance | induced production level of gE-specific IFN-γ [1] | immune effect: induced production level of HBsAg-specific IFN-γ [2] | immune effect: induced production level of HBcAg-specific IFN-γ [3]
QS-21 [QS21] | the best effect | – | –
TCCATGACGTTCCTGACGTT (SEQ ID NO: 5) [CpG 1826] | – | superior to the CpG adjuvants of type A and the CpG adjuvants of type C | superior to the CpG adjuvants of type A and the CpG adjuvants of type C
TCGACGTTCGTCGTTCGTCGTTC (SEQ ID NO: 9) [CpG 684] | – | superior to the CpG adjuvants of type A and the CpG adjuvants of type C | superior to the CpG adjuvants of type A and the CpG adjuvants of type C
TCGTCGTTTTGTCGTTTTGTCGTT (SEQ ID NO: 4) [CpG 7909] | – | superior to the CpG adjuvants of type A and the CpG adjuvants of type C | superior to the CpG adjuvants of type A and the CpG adjuvants of type C
TGACTGTGAACGTTCGAGATGA (SEQ ID NO: 3) [CpG 1018] | – | superior to the CpG adjuvants of type A and the CpG adjuvants of type C | superior to the CpG adjuvants of type A and the CpG adjuvants of type C
TGTCGTCGTCGTTTGTCGTTTGTCGTT (SEQ ID NO: 11) [CPG D2] | – | lower than those induced by the CpG adjuvants of type A and the CpG adjuvants of type C | lower than those induced by the CpG adjuvants of type A and the CpG adjuvants of type C
